Measurements published in US9549746B2, “Delivery device and method” (THE QUEEN'S UNIVERSITY OF BELFAST, priority 2007, dated 2017).

Assay: Delivery across full thickness murine skin in a Franz diffusion cell from drug reservoir with integrated PMVMA microneedle array
Settings: reservoir 19.0 mg TMP cm^-2 attached to PMVMA microneedle array; receiver compartment followed over 25 hours; FIG. 11
Method: In this study, a matrix-type drug reservoir containing 19.0 mg TMP cm^−2 was prepared and attached to a poly(methylvinylether/maleic acid-co-glyceride) (PMVMA) microneedle array. This system was pressed into full thickness murine skin, mounted as the barrier membrane in a Franz diffusion cell, with the aid of gentle pressure. TMP appearing in the receiver compartment was determined by fluorescence spectroscopy over a period of 25 hours.
An identical experiment to that described in Example 3 was performed again. The only difference was that the small very water soluble photosensitiser precursor 5-aminolevulinc acid (ALA, MW 167 Da) was used instead of TMP.

With `C[n+]1ccc(-c2c3nc(c(-c4cc[n+](C)cc4)c4ccc([nH]4)c(-c4cc[n+](C)cc4)c4nc(c(-c5cc[n+](C)cc5)c5ccc2[nH]5)C=C4)C=C3)cc1.Cc1ccc(S(=O)(=O)[O-])cc1.Cc1ccc(S(=O)(=O)[O-])cc1.Cc1ccc(S(=O)(=O)[O-])cc1.Cc1ccc(S(=O)(=O)[O-])cc1` [TMP, meso-Tetra (N-methyl-4-pyridyl) porphine tetra tosylate] the “delivery of TMP across full thickness skin” value was “sustained delivery of TMP across full thickness skin is possible”.
